The series concerns AHR. The experiment in a line: AHR activation in mouse intestine in vivo (Cyp1a1 expression by qRT-PCR). The note with it: for expression of the AHR response gene Cyp1a1 in the small intestine: maternal diet with I3C throughout pregnancy, 25 mg/kg body weight/day. Here is the method:
Hits were validated for activation of AHR signaling by oral gavage into neonatal C57/B16 mice (p11), and measuring the expression of the AHR activation reporter Cyp1a1 by qRT-PCR in the intestinal mucosa 24 hours later. The lead compound from these studies is herein labelled “A18”. Additionally, the mice were subjected to hypoxia (5% 02-95% N2) for 10 min in a hypoxia chamber (Billups-Rothenberg) twice daily for 4 days. […] To test the protective effect of breast milk on AHR signaling a NEC, human breast milk (Innovative Research) was supplemented to the formula at the final concentration of 5%. Endotoxemia was induced in neonatal mouse pups (p11) by administering 5 mg/kg lipopolysaccharides (LPS) via intraperitoneal injection, and ileal samples were harvested 6 hours after LPS treatments. […] I3C and A18 were administered to the pregnant mother daily until the offspring were studied further for experimental NEC or endotoxemia as above. […] The mRNA quantification was performed on the Bio-Rad CFX96 Real-Time System (Bio-Rad) using iTaqTM universal SYBR® Green supermix (Bio-Rad) and the primers listed in Table 1. The relative mRNA expression levels were normalized against the expression of the housekeeping gene ribosomal protein lateral stalk subunit P0 (Rplp0). For microRNA isolation, freshly harvested, snap-frozen ileal tissue was subjected to total RNA isolation using the RNeasy plus universal mini kit (Qiagen) and miRNA was quantified using miScript PCR starter kit (Qiagen) following the manufacturer's protocols. The relative miRNA expression levels were normalized against the expression of housekeeping miRNA miR-191.

This note sets out measurements from patent US20230357261A1, “ARYL HYDROCARBON RECEPTOR LIGANDS AND THEIR ANALOGUES FOR THE PREVENTION AND TREATMENT OF INFLAMMATORY DISORDERS” (The Johns Hopkins University, priority 2020, published 2023).

Entries after “also recorded” stand apart in the source; their conditions may differ.

For `OCc1c[nH]c2ccccc12` [I3C, indole-3-carbinol], the “Cyp1a1 expression in the neonatal intestinal epithelium (ileum)” value runs as follows: (Ahr^Δlys mice, NEC model, I3C 25 mg/kg body weight/day for 4 days) “induced the expression Cyp1a1; also recorded: moderate increase”; (wildtype mice, NEC model, I3C 25 mg/kg body weight/day for 4 days) “induced the expression Cyp1a1; also recorded: multifold induction”. Also, the “Cyp1a1 expression in the intestinal epithelium” value (Ahr^−/− newborn mice, fed I3C 25 mg/kg/day or A18 300 mg/kg/day) is “did not induce Cyp1a1”; the “Cyp1a1 expression in the intestinal epithelium” value (Il22^−/− mice, NEC model, I3C 25 mg/kg body weight/day for 4 days) is “induced the expression of Cyp1a1”; the “Cyp1a1 expression in the intestinal epithelium” value (wild-type newborn (p11) mice, fed I3C 25 mg/kg/day or A18 300 mg/kg/day) is recorded as “induced Cyp1a1 expression”. Also, the “expression of the AHR response gene Cyp1a1 in the small intestine” value runs as follows: (fetus at e17.5) “induced the expression of the AHR response gene Cyp1a1”; (pregnant mother) “induced the expression of the AHR response gene Cyp1a1”. Moreover, under “p11, I3C administered to the lactating mother”, the “Cyp1a1 expression in suckling pups” value is listed as “induced Cyp1a1 expression”.
